Laboratory results: ChEMBL document CHEMBL1201862, “PubChem BioAssay data set” (2004)
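48-hour exposure; five concentrations; linearly interpolated endpoints. GI50: concentration for 50% inhibition of growth.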 The source made the active and inactive calls. No stated cut-off is given here; in the data, active = GI50 up to about 1.1 µM and inactive = higher.

What was measured:
Assay in all cases: NCI tumour cell line growth inhibition, 48 h
HOP-62 = test system: HOP-62
COLO 205 = test system: COLO 205
DLD-1 = test system: DLD-1
DMS-114 = test system: DMS-114
SK-MEL-2 = test system: SK-MEL-2
HOP-92 = test system: HOP-92
DMS-273 = test system: DMS-273
UACC-257 = test system: UACC-257
OVCAR-3 = test system: OVCAR-3
HCT-116 = test system: HCT-116
EKVX = test system: EKVX
LOX IMVI = test system: LOX IMVI
SK-MEL-28 = test system: SK-MEL-28
Malme-3M = test system: Malme-3M
MOLT-4 = test system: MOLT-4
CAKI-1 = test system: CAKI-1
SF-539 = test system: SF-539
M19-MEL = test system: M19-MEL
HOP-18 = test system: HOP-18
KM12 = test system: KM12
OVCAR-8 = test system: OVCAR-8
NCI-H226 = test system: NCI-H226
SK-OV-3 = test system: SK-OV-3
HCC 2998 = test system: HCC 2998
HCT-15 = test system: HCT-15
XF498 = test system: XF498
CCRF-CEM = test system: CCRF-CEM
RXF 393 = test system: RXF 393
786-0 = test system: 786-0
SR = test system: SR
A549 = test system: A549
HT-29 = test system: HT-29
K562 = test system: K562
SK-MEL-5 = test system: SK-MEL-5
ACHN = test system: ACHN
SNB-19 = test system: SNB-19
UACC-62 = test system: UACC-62
TK-10 = test system: TK-10
RPMI-8226 = test system: RPMI-8226
NCI-H460 = test system: NCI-H460
NCI-H23 = test system: NCI-H23
NCI-H522 = test system: NCI-H522
LXFL 529 = test system: LXFL 529
SW-620 = test system: SW-620
SF-295 = test system: SF-295
IGROV-1 = test system: IGROV-1
SN12C = test system: SN12C
SF-268 = test system: SF-268
HL-60 = test system: HL-60

O=c1c(-c2ccccc2)c2oc(c1-c1ccccc1)CS(=O)(=O)CCC2
GI50 (HOP-62): 42.6 µM (inactive) | GI50 (COLO 205): 21 µM (inactive) | GI50 (DLD-1): 21.6 µM (inactive) | GI50 (DMS-114): 39.5 µM (inactive) | GI50 (SK-MEL-2): > 100 µM (inactive) | GI50 (HOP-92): > 100 µM (inactive) | GI50 (DMS-273): 22.5 µM (inactive) | GI50 (UACC-257): 28.8 µM (inactive) | GI50 (OVCAR-3): 22.6 µM (inactive) | GI50 (HCT-116): 12.7 µM (inactive) | GI50 (EKVX): > 100 µM (inactive) | GI50 (LOX IMVI): 20.2 µM (inactive) | GI50 (SK-MEL-28): 17.5 µM (inactive) | GI50 (Malme-3M): 49.4 µM (inactive) | GI50 (MOLT-4): 24.2 µM (inactive) | GI50 (CAKI-1): 28.8 µM (inactive) | GI50 (SF-539): 18.2 µM (inactive) | GI50 (M19-MEL): 17 µM (inactive) | GI50 (HOP-18): < 0.01 µM (active) | GI50 (KM12): 32.2 µM (inactive) | GI50 (OVCAR-8): 36.8 µM (inactive) | GI50 (NCI-H226): 18.5 µM (inactive) | GI50 (SK-OV-3): > 100 µM (inactive) | GI50 (HCC 2998): > 10 µM (inactive) | GI50 (HCT-15): 15.6 µM | GI50 (XF498): 5.97 µM (inactive) | GI50 (CCRF-CEM): 23.8 µM (inactive) | GI50 (RXF 393): 13.8 µM (inactive) | GI50 (786-0): 19.8 µM (inactive) | GI50 (SR): 23.3 µM (inactive) | GI50 (A549): 57.3 µM (inactive) | GI50 (HT-29): 25.5 µM (inactive) | GI50 (K562): 31.1 µM (inactive) | GI50 (SK-MEL-5): 27.7 µM (inactive) | GI50 (ACHN): 29 µM (inactive) | GI50 (SNB-19): > 100 µM (inactive) | GI50 (UACC-62): 21.5 µM (inactive) | GI50 (TK-10): 37.5 µM (inactive) | GI50 (RPMI-8226): 26.9 µM (inactive) | GI50 (NCI-H460): 31.6 µM (inactive) | GI50 (NCI-H23): 17.6 µM (inactive) | GI50 (NCI-H522): 9.98 µM (inactive) | GI50 (LXFL 529): 17.7 µM (inactive) | GI50 (SW-620): 32.7 µM (inactive) | GI50 (SF-295): > 100 µM (inactive) | GI50 (IGROV-1): 45 µM (inactive) | GI50 (SN12C): 16.9 µM (inactive) | GI50 (SF-268): 21.9 µM (inactive) | GI50 (HL-60): 25.6 µM (inactive)
